# ChEMBL document CHEMBL4725460, “Novel Amide-Substituted Heterocyclic Compounds for Treating Inflammatory and Autoimmune Diseases” (ACS Med Chem Lett, 2020)
# Assay: Inhibition of IFNalpha in human whole blood assessed as reduction in IFNalpha-induced STAT phosphorylation by fluorescence assay
# Format: tissue-based
row,SMILES,IC50 [nM]
1,[2H]C([2H])([2H])NC(=O)c1nnc(NC(=O)OC)cc1Nc1cccc(-c2noc(CN3CCCCS3(=O)=O)n2)c1OC,60
2,[2H]C([2H])([2H])NC(=O)c1nnc(NC(=O)NCC=C)cc1Nc1cccc(-c2ncn(C)n2)c1OC,60

# More lines, in order of falling IC50, values ahead:
row,IC50 [nM],SMILES
1,70,COC(=O)Nc1cc(Nc2cccc(-c3ncn(C)n3)c2OC)c(C(N)=O)nn1
2,60,[2H]C([2H])([2H])NC(=O)c1nnc(NC(=O)NCC#C)cc1Nc1cccc(-c2ncn(C)n2)c1OC
3,30,COC(=O)Nc1cc(Nc2cccc(-c3noc(CN4CCCCS4(=O)=O)n3)c2OC)c(C(N)=O)nn1
4,20,[2H]C([2H])([2H])NC(=O)c1nnc(NC(=O)NCC)cc1Nc1cccc(-c2ncn(C)n2)c1OC
